Where no end group is shown, it is not given here.
Legend:
HIV-1IIIB = assay: HIV-1 antiviral assay in CEM-SS cells (MTS readout); conditions: positive controls of the HIV-1 assay
HCMV strain AD169 = assay: HCMV plaque formation assay in MRC-5 cells; conditions: for inhibition of HCMV plaque formation as compared to the virus control experiment: 10 micrograms per ml, MRC-5 cells, 7-10 days, combination 0.95 mole peptide 1 and 1.05 mole peptide 2
HUVEC = assay: Endothelial tube formation assay; type: cell-based, human; conditions: 10 micrograms per ml, 20 hours
Method: The endothelial tube formation assay is based on the ability of endothelial cells to form three-dimensional capillary-like tubular structures when cultured on a gel of basement membrane extract. The endothelial tube formation assay represents a powerful model for studying inhibition and induction of angiogenesis. Pre-labeled HUVEC with Calcein AM were seeded in a 96-well culture plate coated with extracellular metrix (Chemicon international Cat. ECM625) and treated with test peptides-10 micrograms per ml-in full growth medium. […] control was vehicle only. […] Duplicate wells for each treatment were photographed and quantitatevily analyzed for an average tubule length using image analysis software ImageProPlus. Raw data were expressed as average tubule […]±standard deviation. Statistic p values were computed using the Student's t-test.

Interleukin-5 (IL-5) = assay: Th1/Th2 cytokine profiling assay, IL-5; type: cell-based, mouse; conditions: 10 micrograms per ml, Ovalbumin-restimulated Balb/c spleen cells, 72 hours; for change of the production of IL-5 in murine spleen cells: combination 0.95 mole peptide 1 and 1.05 mole peptide 2
Text: (§1) The Balb/c mice (originated in 1923, it is a popular strain and is used in many different research disciplines. […] On day 50, spleens of the mice were harvested (3 weeks after last boost with Ovalbumin). […] This kit can be used to measure Interleukin-2 (IL-2), Interleukin-4 (IL-4), Interleukin-5 (IL-5), Interferon-γ (IFN-γ), and Tumor Necrosis Factor-α (TNF-α) protein levels in a single sample. The kit performance has been optimized for analysis of physiologically relevant concentrations ([…] levels) of specific cytokine proteins in tissue culture supernatants and serum samples.

Interleukin-4 (IL-4) = assay: Th1/Th2 cytokine profiling assay, IL-4; type: cell-based, mouse; conditions: 10 micrograms per ml, Ovalbumin-restimulated Balb/c spleen cells, 72 hours; for production of IL-4 in murine spleen cells, induced by: combination 0.95 mole peptide 1 and 1.05 mole peptide 2
Text: as §1

[1] = system: Tumor Necrosis Factor-α (TNF-α); assay: Th1/Th2 cytokine profiling assay, TNF-α; type: cell-based, mouse; conditions: 10 micrograms per ml, Ovalbumin-restimulated Balb/c spleen cells, 72 hours; for production of TNF-alpha in murine spleen cells, induced by: combination 0.95 mole peptide 1 and 1.05 mole peptide 2
Text: as §1

Human A549 cells = assay: Apoptosis prevention assay (C2 ceramide, Annexin-5); type: cell-based; conditions: 10 micrograms per ml, 30 min pretreatment
Interleukin-2 (IL-2) = assay: Th1/Th2 cytokine profiling assay, IL-2; type: cell-based, mouse; conditions: 10 micrograms per ml, Ovalbumin-restimulated Balb/c spleen cells, 72 hours; for production of IL-2 in murine spleen cells, induced by: combination 0.95 mole peptide 1 and 1.05 mole peptide 2
Text: as §1

[2] = system: Primary Human endothelial cells (HUVEC); assay: Endothelial cell migration assay; type: cell-based; conditions: 10 micrograms per ml, 22 hours
Interferon-γ (IFN-γ) = assay: Th1/Th2 cytokine profiling assay, IFN-γ; type: cell-based, mouse; conditions: 10 micrograms per ml, Ovalbumin-restimulated Balb/c spleen cells, 72 hours
Text: as §1

[3] = system: hepatitis B virus (HBV) ayw strain; assay: HBV experimental assay system, HepG2-2.2.15 cells, secreted HBV DNA by TaqMan PCR; type: cell-based; conditions: 10 micrograms per ml, six days, combination 0.95 mole peptide 1 and 1.05 mole peptide 2

| Compound | antiviral activity of positive control compounds (HIV-1IIIB) | antiviral activity of positive control compound (HCMV strain AD169; positive control of the HCMV assay) | inhibition of the tube formation of human endothelial cells (HUVEC) [%] | IL-5 spleen cells; TH2 response (% of control) (Interleukin-5 (IL-5)) | change of the production of IL-5 in murine spleen cells (Interleukin-5 (IL-5)) | IL-4 spleen cells; TH2 response (% of control) (Interleukin-4 (IL-4)) | production of IL-4 in murine spleen cells, induced by (Interleukin-4 (IL-4)) | TNF-a spleen cells; TH1 response (% of control) [1] | production of TNF-alpha in murine spleen cells, induced by [1] | reduction of the ceramide-induced apoptosis on human lung cells (Human A549 cells) | IL-2 spleen cells (% of control) (Interleukin-2 (IL-2)) | production of IL-2 in murine spleen cells, induced by (Interleukin-2 (IL-2)) | inhibition of the migration of human endothelial cells [2] | IFNγ spleen cells; TH1 response (% of control) (Interferon-γ (IFN-γ)) | production of IFN-γ in murine spleen cells, decreased by (Interferon-γ (IFN-γ)) [%] | inhibition of HCMV plaque formation as compared to the virus control experiment (HCMV strain AD169) [%] | inhibition of HBV replication as compared to the virus control infection [3] [%] | production of IFN-γ in murine spleen cells, induced by (Interferon-γ (IFN-γ); combination 0.95 mole peptide 1 and 1.05 mole peptide 2) [%] |
| --- | --- | --- | --- | --- | --- | --- | --- | --- | --- | --- | --- | --- | --- | --- | --- | --- | --- | --- |
| Cc1cn([C@H]2C[C@H](N=[N+]=[N-])[C@@H](CO)O2)c(=O)[nH]c1=O [AZT] | expected levels of antiviral activity |  |  |  |  |  |  |  |  |  |  |  |  |  |  |  |  |  |
| Nc1nc(O)c2ncn(COC(CO)CO)c2n1 [Ganciclovir, reference compound] |  | expected levels of antiviral activity |  |  |  |  |  |  |  |  |  |  |  |  |  |  |  |  |
| Ser-Gln-Ala-Phe-Leu-Phe-Gln-Pro-Gln-Arg-Phe-NH2 (SQAFLFQPQRF-NH2) [Peptide 1] |  |  | 19 | 91.6 % of control | did not significantly change | 242.2 % of control | 142.2% | 106.3 % of control | did not significantly change | 16.45% | 112.4 % of control | did not significantly change | 33% | 68.0 % of control | 32.0 | 31.3 | 16.7 |  |
| CC(C)(C)NC(=O)[C@@H]1CN(Cc2cccnc2)CCN1C[C@@H](O)C[C@@H](Cc1ccccc1)C(=O)N[C@H]1c2ccccc2C[C@H]1O [indinavir] | expected levels of antiviral activity |  |  |  |  |  |  |  |  |  |  |  |  |  |  |  |  |  |
| His-Ala-Asp-Gly-Ser-Phe-Ser-Asp-Glu-Met-Asn-Thr-Ile-Leu-Asp-Asn-Leu-Ala-Ala-Arg-Asp-Phe-Ile-Asn-Trp-Leu-Ile-Gln-Thr-Lys-Ile-Thr-Asp-OH [Peptide 2] |  |  | 12 | 108.4 % of control | did not significantly change | 104.4 % of control | did not significantly change | 143.7 % of control | 43.7% | did not reduce | 183.3 % of control | 83.3% | did not inhibit | 132.7 % of control |  | 18.8 | 59.2 | 32.7 |
